Measured values from patent publication US20230172930A1, “USE OF COMPLEMENT FACTOR D INHIBITORS ALONE OR IN COMBINATION WITH ANTI-C5 ANTIBODIES FOR TREATMENT OF PAROXYSMAL NOCTURNAL HEMOGLOBINURIA” (Alexion Pharmaceuticals, Inc., priority 2020, published 2023).

System: PNH patients with an inadequate response to eculizumab
Test: Phase 2 study: FACIT-Fatigue Scale V4 (score range 0-52, higher = improvement)
Type: in vivo, human
Settings: for FACIT-Fatigue, mean: N=11
From the text: This study utilized the validated quality of life instrument FACIT-Fatigue Scale (Version 4). This self-reporting instrument measures the severity of fatigue being experienced on a scale of 0 to 52 where a score of less than 30 represents severe fatigue and higher scores indicate improvement in fatigue. A 3-point change is clinically meaningful on this scale. A 10-point or greater change is highly significant on this scale. […] This constitutes an upper limit of the disclosure.

What does the source list for `CC(=O)c1nn(CC(=O)N2C[C@H](F)C[C@H]2C(=O)Nc2cccc(Br)n2)c2ccc(-c3cnc(C)nc3)cc12` [Danicopan, danicopan]?
FACIT-Fatigue, mean (Baseline, before danicopan, on eculizumab): 34; FACIT-Fatigue, mean (Week 24, danicopan 100-200 mg TID + eculizumab): 45; FACIT-Fatigue (Patient A, Baseline, before danicopan, on eculizumab 900 mg q14d): 33; FACIT-Fatigue (Patient A, Week 12, danicopan 150 mg TID + eculizumab 900 mg q14d): 48; FACIT-Fatigue (Patient A, Week 24, danicopan 150 mg TID + eculizumab 900 mg q14d): 52; FACIT-Fatigue (Patient B, Baseline, before danicopan, on eculizumab 1200 mg q14d): 45; FACIT-Fatigue (Patient B, Week 12, danicopan 100 mg TID + eculizumab 900 mg q14d): 49; FACIT-Fatigue (Patient B, Week 24, danicopan 100 mg TID + eculizumab 900 mg q14d): 48; FACIT-Fatigue (Patient C, Baseline, before danicopan, on eculizumab 900 mg q14d): 17; FACIT-Fatigue (Patient C, Week 12, danicopan 150 mg TID + eculizumab 900 mg q14d): 36; FACIT-Fatigue (Patient C, Week 24, danicopan 150 mg TID + eculizumab 900 mg q14d): 26; FACIT-Fatigue (Patient D, Baseline, before danicopan, on eculizumab 900 mg q14d): 18; FACIT-Fatigue (Patient D, Week 12, danicopan 150 mg TID + eculizumab 900 mg q14d): 41; FACIT-Fatigue (Patient D, Week 24, danicopan 150 mg TID + eculizumab 900 mg q14d): 41; FACIT-Fatigue (Patient E, Baseline, before danicopan, on eculizumab 1200 mg q14d): 42; FACIT-Fatigue (Patient E, Week 12, danicopan 150 mg TID + eculizumab 1200 mg q14d): 25; FACIT-Fatigue (Patient E, Week 24, danicopan 150 mg TID + eculizumab 1200 mg q14d): 38; FACIT-Fatigue score (Patient F, Baseline): 9 points; FACIT-Fatigue improvement (Patient F, Baseline to Week 24): 43 point; FACIT-Fatigue (Patient F, Baseline, before danicopan, on eculizumab 900 mg q14d): 9; FACIT-Fatigue (Patient F, Week 12, danicopan 150 mg TID + eculizumab 900 mg q14d): 48; FACIT-Fatigue score (Patient F, Week 24): 52 points; FACIT-Fatigue (Patient F, Week 24, danicopan 150 mg TID + eculizumab 900 mg q14d): 52; FACIT-Fatigue (Patient G, Baseline, before danicopan, on eculizumab 1500 mg q14d): 28; FACIT-Fatigue (Patient G, Week 12, danicopan 100 mg TID + eculizumab 1500 mg q14d): 44; FACIT-Fatigue (Patient G, Week 24, danicopan 100 mg TID + eculizumab 1500 mg q14d): 38; FACIT-Fatigue (Patient H, Baseline, before danicopan, on eculizumab 900 mg q14d): 47; FACIT-Fatigue (Patient H, Week 12, danicopan 200 mg TID + eculizumab 900 mg q14d): 49; FACIT-Fatigue (Patient H, Week 24, danicopan 200 mg TID + eculizumab 900 mg q14d): 49; FACIT-Fatigue (Patient I, Baseline, before danicopan, on eculizumab 900 mg q14d): 48; FACIT-Fatigue (Patient I, Week 12, danicopan 100 mg TID + eculizumab 900 mg q14d): 50; FACIT-Fatigue (Patient I, Week 24, danicopan 200 mg TID + eculizumab 900 mg q14d): 49; FACIT-Fatigue (Patient J, Baseline, before danicopan, on eculizumab 1200 mg q14d): 49; FACIT-Fatigue (Patient J, Week 12, danicopan 100 mg TID + eculizumab 1200 mg q14d): 51; FACIT-Fatigue (Patient J, Week 24, danicopan 200 mg TID + eculizumab 1200 mg q14d): 51; FACIT-Fatigue (Patient K, Baseline, before danicopan, on eculizumab 900 mg q14d): 33; FACIT-Fatigue (Patient K, Week 12, danicopan 100 mg TID + eculizumab 900 mg q14d): 46; FACIT-Fatigue (Patient K, Week 24, danicopan 150 mg TID + eculizumab 900 mg q14d): 50; mean increase in FACIT-Fatigue score (at 24 Weeks relative to Baseline on eculizumab): 11 points
